# Target: T1, GABAA2 receptors (α2, β3, γ3 receptor subunits transfected into Sf9 cells) (Homo sapiens, UniProt P47869+Q99928)
# T1 construct: host or cells: Sf9 cells (membranes)
# T1 sequence (P47869 29-451): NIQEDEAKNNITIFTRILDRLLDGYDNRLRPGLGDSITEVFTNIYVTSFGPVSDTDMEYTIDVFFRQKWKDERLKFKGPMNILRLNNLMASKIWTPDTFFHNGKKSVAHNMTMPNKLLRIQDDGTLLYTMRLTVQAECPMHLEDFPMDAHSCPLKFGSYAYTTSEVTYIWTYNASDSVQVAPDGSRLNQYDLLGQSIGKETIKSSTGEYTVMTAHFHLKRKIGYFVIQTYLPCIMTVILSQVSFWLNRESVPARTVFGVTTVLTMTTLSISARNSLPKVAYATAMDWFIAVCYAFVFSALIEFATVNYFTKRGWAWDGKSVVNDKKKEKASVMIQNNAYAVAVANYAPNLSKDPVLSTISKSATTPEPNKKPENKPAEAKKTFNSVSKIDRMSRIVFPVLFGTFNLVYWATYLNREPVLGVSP
# T1 sequence (P28472 26-473 partner): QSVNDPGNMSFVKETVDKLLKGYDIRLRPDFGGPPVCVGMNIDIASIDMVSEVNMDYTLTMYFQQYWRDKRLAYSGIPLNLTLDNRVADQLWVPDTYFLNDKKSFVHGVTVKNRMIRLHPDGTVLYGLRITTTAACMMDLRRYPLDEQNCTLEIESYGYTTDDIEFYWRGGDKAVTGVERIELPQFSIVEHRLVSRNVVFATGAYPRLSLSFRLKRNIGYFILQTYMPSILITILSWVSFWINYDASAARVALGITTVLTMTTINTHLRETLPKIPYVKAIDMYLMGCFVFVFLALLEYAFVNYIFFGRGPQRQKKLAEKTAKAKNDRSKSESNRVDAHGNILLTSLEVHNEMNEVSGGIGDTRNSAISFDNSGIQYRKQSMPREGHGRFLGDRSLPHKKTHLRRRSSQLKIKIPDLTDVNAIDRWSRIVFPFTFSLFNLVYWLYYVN
# T1 sequence (Q99928 18-467): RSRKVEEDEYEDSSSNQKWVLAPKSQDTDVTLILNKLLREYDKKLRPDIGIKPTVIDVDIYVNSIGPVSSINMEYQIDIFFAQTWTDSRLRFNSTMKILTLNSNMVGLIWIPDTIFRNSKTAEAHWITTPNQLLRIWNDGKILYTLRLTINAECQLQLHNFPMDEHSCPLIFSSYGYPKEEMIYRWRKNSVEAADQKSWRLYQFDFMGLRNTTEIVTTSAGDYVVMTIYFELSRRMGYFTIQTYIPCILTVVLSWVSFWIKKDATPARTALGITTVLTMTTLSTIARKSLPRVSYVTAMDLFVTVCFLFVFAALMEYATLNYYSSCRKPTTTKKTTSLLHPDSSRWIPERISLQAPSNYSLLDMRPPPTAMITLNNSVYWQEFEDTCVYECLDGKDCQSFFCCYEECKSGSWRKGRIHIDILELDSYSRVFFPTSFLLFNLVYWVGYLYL
# Test: GABAA2 binding method ([3H]-flunitrazepam displacement)
# Conditions: [3H]-flunitrazepam ~2 nM, Sf9 membranes, 1 hr at 4° C.
# Procedure: In some embodiments, the binding test was directed to a subtype of GABAA receptors, such as GABAA1 receptors (i.e., those containing the α1 subunit), GABAA2 receptors (i.e., those containing the α2 subunit), GABAA3 receptors (i.e., those containing the α3 subunit) and GABAA5 receptors (i.e., those containing the α5 subunit).
# • Assay and Wash Buffer: 50 mM Tris-Citrate, 200 mM NaCl, pH 7.8 Compounds at 10 mM in DMSO: Put 75 μl in column 1 of compound plate.
# Flumazenil, 10 mM (for NSB)
# [^3H]-Flunitrazepam (Cat #NET567): Prepare 10× stock=20 nM, [F} in assay=˜2 nM
# 1. […] Add 5 ul of 30 uM flumazenil to wells 12 D-E for 50% control wells.
# 2. Spot 2 μl of compound dilutions into dry plate (Automation Program 3). Manually spot 2 μl 10 mM flumazenil into wells 12 F-H for nonspecific control.
# 3. Make 1:100 dilution in assay buffer (2 μl into 200 μl) and dispense 25 μl compound into assay plates (Automation Program 4).
# 4. Dispense 200 μl membranes into assay plate (Automation Program 5).
# 5. Add 25 μl [^3H]-Flunitrazepam (Automation Program 6). Incubate for 1 hr at 4° C.
# 6. Collect membranes on a cell harvester onto GF/B filter plates (pre-wet with dH2O and wash 5× 400 μl/well, with cold assay buffer. (First 3 washes are considered hot; last two are cold.)
# 7. Dry plates for 2-3 hours at RT.
# 8. Add 40 μl Microscint 40/well (Automation Program 7); seal plates. Count on a TopCount.
# Data is analyzed by calculating percent of control, IC50, and Ki in an XLfit template. The following formula is used in the templates: […]
row,SMILES,Ki [nM]
1,CCCNC(=O)c1nnc2c(-c3ccccc3)c(OC)ccc2c1N,91.4
2,CCCNC(=O)c1nnc2c(-c3cnc4ccccc4c3)cccc2c1N,12.3
3,CCCNC(=O)c1nnc2c(-c3cc(OC)cc(OC)c3)cccc2c1N,5
4,CCCNC(=O)c1nnc2c(-c3ccc(C)c(C)c3)cccc2c1N,16.8
5,CCCNC(=O)c1nnc2c(-c3cccc(F)c3OC)cccc2c1N,10.9
6,CCCNC(=O)c1nnc2c(-c3cc(F)ccc3F)c(F)ccc2c1N,45.8
7,CCCNC(=O)c1nnc2c(-c3ccc(N(C)C)cc3)cccc2c1N,26.6
8,CCCNC(=O)c1nnc2c(-c3ccc4[nH]ccc4c3)cccc2c1N,35
9,CCCNC(=O)c1nnc2c(-c3cccc(OC(F)(F)F)c3)cccc2c1N,47.8
10,CCCNC(=O)c1nnc2c(-c3ccc(OC)nc3OC)cccc2c1N,0.56
11,Nc1c(C(=O)NCC2CC2)nnc2c(-c3ccccc3)cccc12,18.6
12,CCCNC(=O)c1nnc2c(-c3cc(F)ccc3OC)cccc2c1N,10.5
13,CCCNC(=O)c1nnc2c(-c3ccccc3)c(Cl)ccc2c1N,5.82
14,CCCNC(=O)c1nnc2c(-c3ccccn3)cccc2c1N,19.4
15,CCCNC(=O)c1nnc2c(-c3ccc(C)cc3)cccc2c1N,29
16,CCCNC(=O)c1nnc2c(-c3cc(C(=O)N4CCC4)ccc3OC)cccc2c1N,18.4
17,CCCNC(=O)c1nnc2c(-c3cnccn3)cccc2c1N,20.4
18,CCCNC(=O)c1nnc2c(-c3ccc(Cl)cc3)cccc2c1N,37.2
19,COc1ccc(F)cc1-c1cccc2c(N)c(C(=O)NC3CC3)nnc12,8.22
20,CCCNC(=O)c1nnc2c(-c3ccc(OC)c(C)c3)cccc2c1N,17.6
21,CCCNC(=O)c1nnc2c(-c3cc(F)cc(F)c3OC)c(F)ccc2c1N,5.78

row,SMILES,Ki [nM]
1,CCCNC(=O)c1nnc2c(-c3cnc(OC)c(F)c3)cccc2c1N,22.1
2,CCCNC(=O)c1nnc2c(-c3nc(Br)ccc3OC)cccc2c1N,7.51
3,CCCNC(=O)c1nnc2c(-c3c(OC)cccc3OC)cccc2c1N,624
4,COc1ccc(C)cc1-c1cccc2c(N)c(C(=O)NC3CC3)nnc12,15.2
5,CCCNC(=O)c1nnc2c(-c3cc(C)ccc3OC)c(Cl)ccc2c1N,2.89
6,CCCNC(=O)c1nnc2c(-c3cccc(S(C)(=O)=O)c3)cccc2c1N,10.4
7,CCCCNC(=O)c1nnc2c(-c3cc(C)ccc3OC)cccc2c1N,13.3
8,CCNC(=O)c1nnc2c(-c3cc(C)ccc3OC)cccc2c1N,10.5
9,CCCNC(=O)c1nnc2c(-c3cc(Cl)cc(Cl)c3)cccc2c1N,22
10,CCCNC(=O)c1nnc2c(-c3cc(C)c(OC)c(C)c3)cccc2c1N,35.8
11,CCCNC(=O)c1nnc2c(-c3cnc(OC)nc3)cccc2c1N,19.5
12,CCCNC(=O)c1nnc2c(-c3cc(C)ccc3C)c(Cl)ccc2c1N,11.2
13,CCCNC(=O)c1nnc2c(-c3ccc(F)cc3)cccc2c1N,9.58
14,CCCNC(=O)c1nnc2c(-c3cc(C(F)(F)F)cc(C(F)(F)F)c3)cccc2c1N,356
15,CCCNC(=O)c1nnc2c(-c3ccc(OC)cc3)cccc2c1N,15.4
16,CNC(=O)c1nnc2c(-c3cc(C)ccc3OC)cccc2c1N,35.8
17,CNC(=O)c1nnc2c(-c3cnc(OC)nc3OC)cccc2c1N,514
18,CCNC(=O)c1nnc2c(-c3cnc(OC)c(F)c3)cccc2c1N,9
19,CCCNC(=O)c1nnc2c(-c3ccc(F)c(F)c3)cccc2c1N,20
20,CCCNC(=O)c1nnc2c(-c3cc(Cl)cc(Cl)c3)c(F)ccc2c1N,16.1

# More lines, in order of falling Ki, values ahead:
row,Ki [nM],SMILES
1,5.71,CCCNC(=O)c1nnc2c(-c3ccc(OC)cc3OC)c(Cl)ccc2c1N
2,5.56,CCCNC(=O)c1nnc2c(-c3cc(F)ccc3C)cccc2c1N
3,4.02,Cc1ccc(-c2cccc3c(N)c(C(=O)NC4CC4)nnc23)cn1
4,3.88,CCCNC(=O)c1nnc2c(-c3ccc(OC)c(OC)c3)cccc2c1N
5,3.44,CCCNC(=O)c1nnc2c(-c3cccc(C(=O)N4CCC4)c3)cccc2c1N
6,3.41,CCCNC(=O)c1nnc2c(-c3cccc(OC)c3F)cccc2c1N
7,2.73,CCCNC(=O)c1nnc2c(-c3cnc(OC)nc3OC)c(Cl)ccc2c1N
8,2.69,CCCNC(=O)c1nnc2c(-c3ccc(OC)cc3OC)c(C#N)ccc2c1N
9,2.5,CCCNC(=O)c1nnc2c(-c3ccc(OC)cc3OC)cccc2c1N
10,2.42,CCCNC(=O)c1nnc2c(-c3ccc(OC)cc3C(F)(F)F)cccc2c1N
11,2.34,CCCNC(=O)c1nnc2c(-c3cncc(C(=O)N4CCC4)c3)cccc2c1N
12,2.1,CCCNC(=O)c1nnc2c(-c3cccnc3OC)cccc2c1N
13,2.07,COc1ccc(-c2cccc3c(N)c(C(=O)NC4CC4)nnc23)c(OC)c1
14,1.84,CCCCNC(=O)c1nnc2c(-c3cnccc3OC)cccc2c1N
15,1.82,CCCNC(=O)c1nnc2c(-c3cccc(Cl)c3Cl)cccc2c1N
16,1.67,CCCNC(=O)c1nnc2c(-c3ccncc3)cccc2c1N
17,1.34,CCCNC(=O)c1nnc2c(-c3cc(Cl)ccc3Cl)c(F)ccc2c1N
18,1.25,CCCNC(=O)c1nnc2c(-c3cc(OC)ccc3Cl)c(F)ccc2c1N
19,1.13,CCCNC(=O)c1nnc2c(-c3cccnc3F)cccc2c1N
20,1.11,CCCNC(=O)c1nnc2c(-c3cc(Cl)ccc3OC)cccc2c1N

row,Ki [nM],SMILES
1,1.03,CCCNC(=O)c1nnc2c(-c3ccc(F)cc3OCC)c(F)ccc2c1N
2,1,CCCNC(=O)c1nnc2c(-c3ccccc3)c(F)ccc2c1N
3,1,COc1ccc(-c2cccc3c(N)c(C(=O)NC4CC4)nnc23)c(OC)n1
4,0.996,CCCNC(=O)c1nnc2c(-c3cc(F)ccc3F)cccc2c1N
5,0.941,CCCNC(=O)c1nnc2c(-c3cccc(OC)c3F)c(F)ccc2c1N
6,0.927,COc1ccc(-c2cccc3c(N)c(C(=O)NC4CCC4)nnc23)c(OC)c1
7,0.918,CCCNC(=O)c1nnc2c(-c3cnc(OC)nc3OC)c(F)ccc2c1N
8,0.852,CCCNC(=O)c1nnc2c(-c3cc(C)ccc3F)cccc2c1N
9,0.785,COc1ccncc1-c1cccc2c(N)c(C(=O)NC3CC3)nnc12
10,0.735,CCCNC(=O)c1nnc2c(-c3cc(F)ccc3C)c(F)ccc2c1N
11,0.71,CCCNC(=O)c1nnc2c(-c3cc(Cl)ccc3Cl)cccc2c1N
12,0.698,COc1cccc(F)c1-c1cccc2c(N)c(C(=O)NC3CC3)nnc12
13,0.613,CCCNC(=O)c1nnc2c(-c3ccc(OC)cc3F)c(F)ccc2c1N
14,0.6,CCCNC(=O)c1nnc2c(-c3ccc(OC)c(OC)c3OC)c(F)ccc2c1N
15,0.565,CCCNC(=O)c1nnc2c(-c3ccc(F)cc3OC)c(F)ccc2c1N
16,0.501,COc1ncccc1-c1cccc2c(N)c(C(=O)NC3CC3)nnc12
17,0.364,CCCNC(=O)c1nnc2c(-c3ccccc3C(F)(F)F)cccc2c1N
18,0.341,CCCNC(=O)c1nnc2c(-c3c(F)cccc3OC)c(F)ccc2c1N
19,0.327,CCCNC(=O)c1nnc2c(-c3cc(Cl)ccc3OC)c(F)ccc2c1N

# — US20080318925A1 (ASTRAZENECA AB, priority 2007, published 2008)
